The text below walks through data of ChEMBL document CHEMBL4177733, “(-)-9'-O-(α-l-Rhamnopyranosyl)lyoniresinol from Lespedeza cuneata suppresses ovarian cancer cell proliferation through induction of apoptosis” (Bioorg Med Chem Lett, 2018).

Test [1] concerns A2780. The test can be described thus: Cytotoxicity against human A2780 cells assessed as reduction in cell viability at 5 to 100 uM incubated for 24 hrs by MTT assay. The format is functional, cell-based.
A further test deals with LLC-PK1. The test can be described thus: Cytotoxicity against LLC-PK1 cells assessed as reduction in cell viability at 5 to 100 uM incubated for 24 hrs by MTT assay. The format is cell-based. The settings on record: Sus scrofa, LLC-PK1, 24 h. For orientation: Tetrazolium assays rely on reduction of a dye to a coloured formazan, in cell work by metabolically active cells.

Test [2] deals with A2780. The test can be described thus: Induction of apoptosis in human A2780 cells assessed as caspase-9 activation at 50 to 100 uM incubated for 24 hrs by Western blot. The test is classed as functional, cell-based. A general note: In western blotting, separated proteins are transferred to a membrane and probed.
Test [3] relates to A2780. The test can be described thus: Induction of apoptosis in human A2780 cells assessed as PARP cleavage at 50 to 100 uM incubated for 24 hrs by Western blot. The test is classed as functional, cell-based.
In test [4] the test system is A2780. Kind of test: Induction of apoptosis in human A2780 cells assessed as induction of cell blebbing at 50 to 100 uM incubated for 24 hrs by Hoechst 33342 staining based fluorescence microscopy. The format is functional.
The next test concerns HeLa. The test can be described thus: Cytotoxicity against human HeLa cells assessed as reduction in cell viability at 5 to 100 uM incubated for 24 hrs by MTT assay. The format is functional, cell-based.
In test [5] the test system is A2780. Kind of test: Induction of apoptosis in human A2780 cells assessed as caspase-3 activation at 50 to 100 uM incubated for 24 hrs by Western blot. The test is classed as functional, cell-based.
Test [6] relates to A2780. The test can be described thus: Induction of apoptosis in human A2780 cells assessed as induction of cell shrinkage at 50 to 100 uM incubated for 24 hrs by Hoechst 33342 staining based fluorescence microscopy. The test is classed as functional.
Test [7] relates to A2780. Kind of test: Induction of apoptosis in human A2780 cells assessed as induction of cell condensation at 50 to 100 uM incubated for 24 hrs by Hoechst 33342 staining based fluorescence microscopy. The format is functional.
Test [8] relates to A2780. Kind of test: Induction of apoptosis in human A2780 cells assessed as BID cleavage at 50 to 100 uM incubated for 24 hrs by Western blot. The format is functional, cell-based.
The test system of test [9] is A2780. Kind of test: Induction of apoptosis in human A2780 cells assessed as increase in BAX protein level at 50 to 100 uM incubated for 24 hrs by Western blot. The format is functional, cell-based.
Test [10] concerns A2780. The test can be described thus: Induction of apoptosis in human A2780 cells assessed as caspase-8 activation at 50 to 100 uM incubated for 24 hrs by Western blot. The test is classed as functional, cell-based.
The next test concerns MCF7. The test can be described thus: Cytotoxicity against human MCF7 cells assessed as reduction in cell viability at 5 to 100 uM incubated for 24 hrs by MTT assay. The format is functional, cell-based.
Test [11] concerns A2780. Kind of test: Induction of apoptosis in human A2780 cells assessed as reduction in Bcl-2 protein level at 50 to 100 uM incubated for 24 hrs by Western blot. The test is classed as functional, cell-based.

One may read the IC50 as the concentration at which inhibition is half-maximal.

The source made the active and inactive calls. The calls are words filed in the database; no cut-off is given here. Where only a bound is given, the exact number is not on record here.

Turning to `COc1cc(C(=O)O)cc(OC)c1O`, the result with A2780 [1] was Active.
On the same count and under the same terms, next, `COc1cc2c(cc1O)[C@H](c1cc(OC)c(O)c(OC)c1)[C@@H](CO[C@@H]1O[C@@H](C)[C@H](O)[C@@H](O)[C@H]1O)[C@H](CO)C2`: “inactive”.
As to `COc1cc([C@@H]2c3c(cc(OC)c(O)c3OC)C[C@H](CO)[C@H]2CO[C@@H]2O[C@@H](C)[C@H](O)[C@@H](O)[C@H]2O)cc(OC)c1O`, the IC50 is greater than 100 µM with LLC-PK1 and 35.4 µM with A2780 [1] (A2780, 24 h). For the same compound, the result in the test on A2780 [2], with HeLa and in the test with MCF7 was inactive. The result in the test on A2780 [3], with A2780 [4], with A2780 [5], with A2780 [6], in the test on A2780 [7] and with A2780 [8] was Active. For the same compound, the outcome in the test with A2780 [9], in the test with A2780 [10] and with A2780 [11] was Active. Also, in the test with A2780 [1], the Activity entry is “Dose-dependent effect”.
As for `O=c1c(O[C@@H]2O[C@H](CO)[C@@H](O)[C@H](O)[C@H]2O)c(-c2ccc(O)cc2)oc2cc(O)cc(O)c12`, in the test on A2780 [1], the outcome was inactive.
Regarding `COc1cc([C@@H]2c3cc(O)c(OC)cc3C[C@H](CO)[C@H]2CO[C@@H]2O[C@@H](C)[C@H](O)[C@@H](O)[C@H]2O)ccc1O`, the outcome with A2780 [1] was inactive.
Same read-out and setting: in the case of `COc1cc([C@H]2c3cc(O)c(OC)cc3C[C@@H](CO)[C@@H]2CO[C@@H]2O[C@@H](C)[C@H](O)[C@@H](O)[C@H]2O)ccc1O` it was “inactive”.
Same read-out and setting: in the case of `O=c1cc(-c2ccc(O)c(O)c2)oc2c([C@@H]3O[C@H](CO)[C@@H](O)[C@H](O)[C@H]3O)c(O)cc(O)c12` it was “inactive”.
On the same count and under the same terms, next, `O=c1c(O)c(-c2ccc(O)cc2)oc2cc(O[C@@H]3O[C@H](CO)[C@@H](O)[C@H](O)[C@H]3O)cc(O)c12`: “inactive”; `COc1cc(C(=O)O)ccc1O`: “inactive”.
